Data as given in article PMC11291776, “The development of ^177Lu-DOTA-CC-PSMA following a unified “Click Chemistry” protocol of synthesizing metal nuclide-conjugated radiopharmaceuticals” (EJNMMI Radiopharmacy and Chemistry, 2024).

Experiment: Pharmacokinetics (blood radioactivity after i.v. injection)
Type: in vivo
Conditions: healthy BALB/c male mice, i.v. 3.7 MBq, blood 2-240 min, DAS 2.0
Description: ^177Lu-DOTA-CC-PSMA (3.7 MBq in 100 µL) or ^177Lu-PSMA-617 (3.7 MBq in 100 µL) was administered intravenously via the tail into BALB/c male mice (n = 6), and a venous blood sample (5 µL) was collected from the tail end of each mouse at different time points after injection (2, 4, 6, 10, 15, 30, 60, 120, and 240 min). The radioactivity of the blood samples was measured by γ-counter, and the pharmacokinetics data were obtained using the DAS 2.0 software.

Compound: O=C([O-])CN1CCN(CC(=O)[O-])CCN(CC(=O)NCC2CCC(C(=O)N[C@@H](Cc3ccc4ccccc4c3)C(=O)NCCCC[C@H](NC(=O)N[C@@H](CCC(=O)O)C(=O)O)C(=O)O)CC2)CCN(CC(=O)[O-])CC1.[177Lu+3] (stereo partly shown) [^177Lu-PSMA-617]
- blood clearance half-life: 17.18 min
